In patent US4959359A, “Phenyl-thiazepinones as calcium regulating agents” (Hoffmann-La Roche Inc., priority 1989, dated 1990):
Where a name gives a salt, the structure may show the parent alone.

Tested on: isolated rat aortic strips
Experiment: Contraction of rat aortic strips: inhibition of Ca++-induced contracture (calcium channel blocking activity)
Format: cell-based
Settings: for inhibition at 0.3 µM: Rattus norvegicus, read-out: % Inhibition (contractile response at 2 mM Ca++ as compared to the control), heading: % Inhibition, 3×10^-7 M, 15 minutes prior to and during the calcium curve, depolarizing K+ 45 mM, diltiazem n = 10, A-D n = 1
Procedure: The calcium channel blocking activity of compounds of formula I was determined by measuring the effect of compounds of formula I on isolated rat aortic strips.
Aortas were excised from rats, placed in Krebs-Henseleit solution, modified so as to be calcium free, with a depolarized level of potassium (45 mM), and 0.02 mM EDTA. The aorta was then helically cut into a strip about 2 mm wide. This strip was then divided into four equal segments about 15 mm in length, which were hung in isolated tissue chambers, attached to the appropriate tranducers and subjected to 500 mg basal tension. After a period of stabilization under these conditions, calcium was introduced into the bath and the tissues contracted in a concentration dependent manner.
When no calcium is available in the bathing media, and the potential dependent calcium channels are opened by the high potassium level, contractility is dependent on the level of calcium introduced into the bath. By adding increments of calcium into the bath, a reproducible concentration-dependent contracture can be obtained. Treatment with a calcium channel blocker, such as diltiazem, or a compound of the invention results in an inhibition of this contractile response.
Each number in the table below was derived by first adding calcium alone to tissue and measuring contracture, and then adding calcium to tissue that had been exposed to 3×10^-7 M of the compound to be tested and measuring contracture. The number for untreated controls was derived by measuring contracture for two runs where calcium alone was added.
A compound tested was placed in the bath at 3×10^-7 M for 15 minutes prior to, and during the acquisition of the concentration-dependent curve to calcium for that particular compound. The inhibition in contractile response at 2 mMCa++ was measured as a per cent inhibition as compared to the control. The effects on the 2 mM Ca++ contracture are as follows:
That is, compound A inhibited almost three quarters of the contracture observed for the control at 2 mM Ca++. As used above, compounds A, B, C, and D are as follows: […]

| SMILES | responsiveness to 2 mM Ca++ (15 minute exposure at 3×10^-7 M) | inhibition at 0.3 µM |
| --- | --- | --- |
| COc1ccc([C@@H]2Sc3ccccc3N(CCN(C)C)C(=O)[C@@H]2OC(C)=O)cc1 [Diltiazem, reference compound] | marked reduction in responsiveness | 71.1% |
| COc1ccc([C@@H]2SC(c3ccccc3)=C(C)N(CCN(C)C)C(=O)[C@H]2OC(C)=O)cc1 (relative stereo) [D, trans-rac.-6-(acetyloxy)6,7-dihydro-7-(4-methoxyphenyl)-3-methyl-4-[2-dimethylamino)ethyl]-2-phenyl-1,4-thiazepin-5(4H)-one hydrochloride] | – | 13.4% |
| COc1ccc([C@H]2SC(c3ccccc3)=C(C)N(CCN(C)C)C(=O)[C@H]2OC(C)=O)cc1 [C, (-)-cis-6-(acetyloxy)-6,7-dihydro-7-(4-methoxyphenyl)-3-methyl-4-[2-dimethylamino)ethyl]-2-phenyl-1,4-thiazepin-5(4H)-one [R-(R*,R*)]-2,3-dihydroxybutanedioic acid sesquihydrate] | – | 3.8% |
| COc1ccc([C@@H]2SC(c3ccccc3)=C(C)N(CCN(C)C)C(=O)[C@@H]2OC(C)=O)cc1 [Compound B, (+)-cis-6-(acetyloxy)-6,7-dihydro-7-(4-methoxyphenyl)-3-methyl-4-[2-dimethylamino)ethyl]-2-phenyl-1,4-thiazepin-5(4H)-one [S-(R*,R*)]-2,3-dihydroxybutanedioic acid hydrate] | – | 88.3% |
| COc1ccc([C@H]2SC(c3ccccc3)=C(C)N(CCN(C)C)C(=O)[C@H]2OC(C)=O)cc1 (racemic) [Compound A, cis-rac.-6-(acetyloxy)-6,7-dihydro-7-(4-methoxyphenyl)-3-methyl-4-[2-(dimethylamino)ethyl]-2-phenyl-1,4-thiazepin-5(4H)-one (E)-2-butenedioate] | – | 73.4% |
